# Data as given in ChEMBL document CHEMBL3046712, “Molecular simulations of bergenin as a new urease inhibitor” (Med Chem Res, 2012).
# pIC50: −log10 of the molar value.
# What was measured:
# Sporosarcina pasteurii = assay: (§1) Inhibition of Sporosarcina pasteurii urease using urea as substrate after 15 min
# [1] = as §1
inhibition (Sporosarcina pasteurii) [%],SMILES,pIC50 [1]
78,COc1c(O)cc2c(c1O)[C@@H]1O[C@H](CO)[C@@H](O)[C@H](O)[C@H]1OC2=O [BERGENIN],4.66
,NC(N)=S [THIOUREA],4.60
